# Experimental data from PubChem BioAssay AID1259407 (Chemical Carcinogenesis Research Information System (CCRIS), 2018).
# The source made the active and inactive calls. The rule behind the calls is not given here.
# Test system: CCRIS mutagenicity, Ames/micronucleus/aberration tests
# Assay: CCRIS mutagenicity studies
# [1] = Test System: AMES SALMONELLA TYPHIMURIUM, Strain/Indicator: TA98, Metabolic Activation: NONE, Method: PREINCUBATION
# [2] = Test System: AMES SALMONELLA TYPHIMURIUM, Strain/Indicator: TA100, Metabolic Activation: NONE, Method: PREINCUBATION
smiles,measurement,setting,value
CCOc1ccc(N)cc1,mutagenic call,"Test System: AMES SALMONELLA TYPHIMURIUM, Strain/Indicator: TA98, Metabolic Activation: HAMSTER, LIVER, S-9, AROCLOR 1254 (30%), Method: PREINCUBATION",inactive; negative
same,mutagenic call,[1],inactive; negative
same,mutagenic call,"Test System: AMES SALMONELLA TYPHIMURIUM, Strain/Indicator: TA98, Metabolic Activation: RAT, LIVER, S-9, AROCLOR 1254 (30%), Method: PREINCUBATION",inactive; negative
same,mutagenic call,"Test System: AMES SALMONELLA TYPHIMURIUM, Strain/Indicator: TA100, Metabolic Activation: HAMSTER, LIVER, S-9, AROCLOR 1254 (30%), Method: PREINCUBATION",active; positive
same,mutagenic call,"Test System: AMES SALMONELLA TYPHIMURIUM, Strain/Indicator: TA100, Metabolic Activation: HAMSTER, LIVER, S-9, KANECHLOR 400, Method: PREINCUBATION",active; positive
same,mutagenic call,[2],inactive; negative
same,mutagenic call,"Test System: AMES SALMONELLA TYPHIMURIUM, Strain/Indicator: TA100, Metabolic Activation: RAT, LIVER, S-9, AROCLOR 1254 (30%), Method: PREINCUBATION",active; positive
same,mutagenic call,"Test System: UDS RODENT HEPATOCYTES, Strain/Indicator: THY INCORP (NON-S-PHASE), Metabolic Activation: NONE, Method: AUTORADIOGRAPHY",inactive; negative
CCOP(=S)(OCC)Oc1nc(Cl)n(C(C)C)n1,mutagenic call,[1],active; positive
same,mutagenic call,"Test System: AMES SALMONELLA TYPHIMURIUM, Strain/Indicator: TA98, Metabolic Activation: RAT, LIVER, S-9, AROCLOR 1254, Method: PREINCUBATION",active; positive
[O]=[Mg],mutagenic call,"Test System: AMES SALMONELLA TYPHIMURIUM, Strain/Indicator: TA97, Metabolic Activation: NONE, Method: PREINCUBATION",inactive; negative
same,mutagenic call,"Test System: AMES SALMONELLA TYPHIMURIUM, Strain/Indicator: TA97, Metabolic Activation: S-9, Method: PREINCUBATION",inactive; negative
same,mutagenic call,[2],inactive; negative
same,mutagenic call,"Test System: AMES SALMONELLA TYPHIMURIUM, Strain/Indicator: TA100, Metabolic Activation: RAT, LIVER, S-9, Method: PREINCUBATION",inactive; negative
same,mutagenic call,"Test System: AMES SALMONELLA TYPHIMURIUM, Strain/Indicator: TA102, Metabolic Activation: NONE, Method: PREINCUBATION",inactive; negative
same,mutagenic call,"Test System: AMES SALMONELLA TYPHIMURIUM, Strain/Indicator: TA102, Metabolic Activation: S-9, Method: PREINCUBATION",inactive; negative
COc1ccc(C(O)(c2cncnc2)C2CC2)cc1 (configuration not stated),mutagenic call,"Test System: Ames Salmonella typhimurium, Strain/Indicator: TA98, Metabolic Activation: None, Method: Standard Plate",inactive; negative
same,mutagenic call,"Test System: Ames Salmonella typhimurium, Strain/Indicator: TA98, Metabolic Activation: Rat, liver, S-9, Method: Standard Plate",inactive; negative
same,mutagenic call,"Test System: Ames Salmonella typhimurium, Strain/Indicator: TA100, Metabolic Activation: None, Method: Standard Plate",inactive; negative
same,mutagenic call,"Test System: Ames Salmonella typhimurium, Strain/Indicator: TA100, Metabolic Activation: Rat, liver, S-9, Method: Standard Plate",inactive; negative
same,mutagenic call,"Test System: Ames Salmonella typhimurium, Strain/Indicator: TA1535, Metabolic Activation: None, Method: Standard Plate",inactive; negative
same,mutagenic call,"Test System: Ames Salmonella typhimurium, Strain/Indicator: TA1535, Metabolic Activation: Rat, liver, S-9, Method: Standard Plate",inactive; negative
same,mutagenic call,"Test System: Ames Salmonella typhimurium, Strain/Indicator: TA1537, Metabolic Activation: None, Method: Standard Plate",inactive; negative
same,mutagenic call,"Test System: Ames Salmonella typhimurium, Strain/Indicator: TA1537, Metabolic Activation: Rat, liver, S-9, Method: Standard Plate",inactive; negative
same,mutagenic call,"Test System: Ames Salmonella typhimurium, Strain/Indicator: TA1538, Metabolic Activation: None, Method: Standard Plate",inactive; negative
same,mutagenic call,"Test System: Ames Salmonella typhimurium, Strain/Indicator: TA1538, Metabolic Activation: Rat, liver, S-9, Method: Standard Plate",inactive; negative
same,mutagenic call,"Test System: Mouse lymphoma, Strain/Indicator: L5178Y (TK+/TK-), Metabolic Activation: None, Method: Suspension/Plate",inactive; negative
same,mutagenic call,"Test System: Mouse lymphoma, Strain/Indicator: L5178Y (TK+/TK-), Metabolic Activation: S-9 of unspecified origin, Method: Suspension/Plate",inactive; negative
COc1cccc2c1C(=O)c1c(O)c3c(c(O)c1C2=O)C[C@@](O)(C(=O)CO)C[C@@H]3O[C@H]1C[C@H](N)[C@H](OC)[C@H](C)O1,mutagenic call,"Test System: AMES SALMONELLA TYPHIMURIUM, Strain/Indicator: GW257, Metabolic Activation: NONE, Method: STANDARD PLATE",active; positive
same,mutagenic call,"Test System: AMES SALMONELLA TYPHIMURIUM, Strain/Indicator: TA97, Metabolic Activation: NONE, Method: STANDARD PLATE",active; positive
same,mutagenic call,[1],active; positive
same,mutagenic call,"Test System: AMES SALMONELLA TYPHIMURIUM, Strain/Indicator: TA98, Metabolic Activation: NONE, Method: STANDARD PLATE",active; positive
same,mutagenic call,"Test System: AMES SALMONELLA TYPHIMURIUM, Strain/Indicator: TA100, Metabolic Activation: NONE, Method: STANDARD PLATE",active; positive
same,mutagenic call,"Test System: AMES SALMONELLA TYPHIMURIUM, Strain/Indicator: TA104, Metabolic Activation: NONE, Method: STANDARD PLATE",active; positive
same,mutagenic call,"Test System: AMES SALMONELLA TYPHIMURIUM, Strain/Indicator: TA1538, Metabolic Activation: NONE, Method: STANDARD PLATE",active; positive
same,mutagenic call,"Test System: AMES SALMONELLA TYPHIMURIUM, Strain/Indicator: TA2637, Metabolic Activation: NONE, Method: STANDARD PLATE",active; positive
C[N+]1([O-])CCC[C@H]1c1cccnc1 (some centres not stated),mutagenic call,[1],inactive; negative
same,mutagenic call,"Test System: AMES SALMONELLA TYPHIMURIUM, Strain/Indicator: TA98, Metabolic Activation: RAT, LIVER, S-9, AROCLOR 1254 (5%), Method: PREINCUBATION",inactive; negative
same,mutagenic call,[2],inactive; negative
same,mutagenic call,"Test System: AMES SALMONELLA TYPHIMURIUM, Strain/Indicator: TA100, Metabolic Activation: RAT, LIVER, S-9, AROCLOR 1254 (5%), Method: PREINCUBATION",inactive; negative
same,mutagenic call,"Test System: AMES SALMONELLA TYPHIMURIUM, Strain/Indicator: TA1535, Metabolic Activation: NONE, Method: PREINCUBATION",inactive; negative
same,mutagenic call,"Test System: AMES SALMONELLA TYPHIMURIUM, Strain/Indicator: TA1535, Metabolic Activation: RAT, LIVER, S-9, AROCLOR 1254 (5%), Method: PREINCUBATION",inactive; negative
same,mutagenic call,"Test System: AMES SALMONELLA TYPHIMURIUM, Strain/Indicator: TA1537, Metabolic Activation: NONE, Method: PREINCUBATION",inactive; negative
same,mutagenic call,"Test System: AMES SALMONELLA TYPHIMURIUM, Strain/Indicator: TA1537, Metabolic Activation: RAT, LIVER, S-9, AROCLOR 1254 (5%), Method: PREINCUBATION",inactive; negative
same,mutagenic call,"Test System: AMES SALMONELLA TYPHIMURIUM, Strain/Indicator: TA1538, Metabolic Activation: NONE, Method: PREINCUBATION",inactive; negative
same,mutagenic call,"Test System: AMES SALMONELLA TYPHIMURIUM, Strain/Indicator: TA1538, Metabolic Activation: RAT, LIVER, S-9, AROCLOR 1254 (5%), Method: PREINCUBATION",inactive; negative
O=C1C=C2c3cc4ccccc4cc3-c3cccc(c32)C1=O,mutagenic call,"Test System: AMES SALMONELLA TYPHIMURIUM, Strain/Indicator: TA100, Metabolic Activation: RAT, LIVER, S-9, AROCLOR 1254, Method: STANDARD PLATE",active; positive
